This note sets out measurements from US8188138B2, “Sulphonylpyrrole hydrochloride salts as histone deacetylases inhibitors” (4SC AG, priority 2005, dated 2012).

Read-outs that look alike come from different tables or passages of the source.

Data set [1] deals with broad selection of non-malignant cell lines and fully transformed malignant cancer cell lines. Description: Anti-proliferative activity across cell line panel (Alamar Blue). Type of data set: cell-based. To be noted: mean over non-malignant and malignant cell lines. How it is done: (§1) The anti-proliferative activity of the histone deacetylase inhibitory compounds as described herein, was evaluated using the following cell lines: HeLa and HeLa—KB (cervical carcinoma), H460 (non small cell lung cancer), A549 (non-small cell lung cancer), MCF7 (breast carcinoma), MCF10A (normal, non tumorigenic breast epithelial), MDA-MB468 (breast carcinoma), MDA-MB435 (breast carcinoma), MDA-MB231 (breast carcinoma), SKBR-3 (breast carcinoma), SKOV-3 (ovarial carcinoma), A-2780 (ovarial carcinoma), RKO (colon carcinoma), HCT-15 (colon carcinoma), HCT-116 (colon carcinoma), PC3 (prostate carcinoma), BPH1 (benign prostate hyperplasia), AsPC1 (pancreatic carcinoma), Cal27 (tongue carcinoma), A-431 (vulva carcinoma), HeclA (endometrial carcinoma), Saos-2 (osteosarcoma), U87MG (glioblastoma), WM266-4 (melanoma), K562 (chronic myeloid carcinoma), EOL1 (acute hypereosinophilic myeloid leukemia), CCRF-CEM and CCRF-CEM VCR1000 (acute lymphoblastic leukemia sensitive and resistant towards Vincristine). For quantification of cellular proliferation/living cells the Alamar Blue (Resazurin) cell viability assay was applied (O'Brien et al. Eur J Biochem 267, 5421-5426, 2000). In this assay Resazurin is reduced to the fluorescent resorufin by cellular dehydrogenase activity, correlating with viable, proliferating cells. The examples were dissolved as 20 mM solutions in dimethylsulfoxide (DMSO) and subsequently diluted in semi-logarithmic steps. Cell lines were seeded at respective density into 96 well flat bottom plates in a volume of 200 μl per well. 24 hours after seeding 1 μl each of the compound dilutions were added into each well of the 96 well plate. Each compound dilution was tested as quadruplicates. Wells containing untreated control cells were filled with 200 μl DMEM medium containing 0.5% v:v DMSO. The cells were then incubated with the substances for 72 hours at 37° C. in a humidified atmosphere containing 5% carbon dioxide. To determine the viability of the cells, 20 μl of an Resazurin solution (Sigma; 90 mg/l) were added. After 4 hours incubation at 37° C. the fluorescence was measured at an extinction of 544 nm and an emission of 590 nm. For the calculation of the cell viability the emission value from untreated cells was set as 100% viability and the emission rates of treated cells were set in relation to the values of untreated cells. Viabilities were expressed as % values. The corresponding IC50 values of the compounds for cytotoxic activity are determined from the concentration-effect curves by means of non-linear regression.

In data set [2] the test system is HeLa cervical carcinoma cells. The experiment in a line: Cellular cytotoxicity assay (Alamar Blue), HeLa. Particulars: Homo sapiens, 72 h, range stated for the listed group. It counts as cell-based. How it is done: as §1
Data set [3] relates to MDA-MB468 breast cancer cells. Description: Breast cancer cell differentiation assay (Nile Red, flow cytometry). Type of data set: cell-based. Particulars: 24 h; for Neutral & phospholipids (%): differentiated cells; for Phospholipids (%): undifferentiated cells. Here is the method:
For quantification of MDA-MB468 breast cancer cell differentiation (described by Munster et al. Canc. Res. 61(23), pp 8492, 2001), 1× E6 cells were seeded in 10 cm cell culture dishes and, after cultivation for 24 h, treated with HDI for further 24 h. Finally, cells were collected by trypsination, washed twice with PBS and resuspended in 1 ml of staining solution ([…] Nile Red in PBS). After incubation for at least 5 min at room temperature, cells were analysed by flow cytometry on a FACS Calibur device (Ex 488 nm, Em. at 530 nm/FL-1 and >630 nm/FL-3). From respective histograms the percentage of cells with fluorescence at 650 nm (phospholipids) and 530 nm+650 nm (phospho- and neutral lipids) were calculated. For microscopic analysis, MDA-MB468 cells were cultivated on two-well chamber slides, treated with test compound for 24 h, fixed with 1.5 vol % glutaraldehyde/PBS and finally treated with staining solution. After washing with PBS, cells were analysed by fluorescence microscopy.
The percentage of differentiated cells with neutral and phospholipids as well as undifferentiated cells with phospholipids only are summarized in the table 5.

Data set [4] has as its system A549 cell line. The experiment in a line: Combination experiment with Trail in A549. Type of data set: cell-based. Particulars: example at about its IC50 combined with Trail. How it is done: A549 non-small cell lung cancer, MDA-MB468 breast cancer and […] colorectal cancer cell lines were pretreated with the examples for 4 h before adding the chemotherapeutic agents or Trail and further incubation for 72 h total. The IC50 values of these combinations were determined from concentration-effect curves and compared to IC50 values of cell treated with the anti-cancer agent only.

Data set [5] has as its system RKO colon carcinoma cells. The experiment in a line: Cell-cycle dependent cytotoxicity, RKO exop21 cell system. It counts as cell-based. Particulars: Homo sapiens, 72 h, range stated for the listed group. Here is the method: For determination of cell-cycle dependent cytotoxicity, the RKO exop21 cell system was applied (Schmidt et al. Oncogene 19: 2423-2429, 2000). Briefly, RKO cells with/without p21^waf1 expression (2×10^4 cells/well induced, 6×10^3 cells/well not induced) were treated with the examples for 72 h and metabolic activity quantified as described before. The expression of p21^waf1 was induced by treatment with Pronasterone A, causing a complete proliferation arrest of RKO cells in the G1 and G2 phases of the cell division cycle.

Regarding `O=C(/C=C/c1ccn(S(=O)(=O)c2ccc(-c3ccccc3)cc2)c1)NO` [Compound 3, (E)-3-[1-(Biphenyl-4-sulfonyl)-1H-pyrrol-3-yl]-N-hydroxy-acrylamide], the IC50 in data set [1] is 850 nM; in data set [2], 800 to 21600 nM; in data set [5] (arrested RKO cells, p21waf1 expressed, read-out: RKO arrested (p21^waf1 expressed) IC50), 450 to 15000 nM; in data set [5] (proliferating RKO cells, read-out: RKO proliferating IC50) it was 150 to 5100 nM. For the same compound, the “Neutral & phospholipids (%)” value in data set [3] (0.6 μM) came to 34.6%; in data set [3] (1.2 μM), 51.2%. Also, the results for the “Phospholipids (%)” value in data set [3] (0.6 μM) and in data set [3] (1.2 μM) were 62.6% and 45.7%, respectively. Besides, the “Effect of combination with Trail” value in data set [4] was “synergism is highly likely”.
In data set [2], `CN(C)c1ccc(S(=O)(=O)n2ccc(/C=C/C(=O)Nc3ccccc3N)c2)cc1` [Compound 8, (E)-N-(2-Amino-phenyl)-3-[1-(4-dimethylamino-benzenesulfonyl)-1H-pyrrol-3-yl]-acrylamide] gave a half-maximal inhibitory concentration (IC50) of 800 to 21600 nM.
Same read-out and setting: with `O=C(/C=C/c1ccn(S(=O)(=O)c2ccc(CNCc3cccnc3)cc2)c1)NO` [Compound 11, (E)-N-Hydroxy-3-[1-(4-{[(pyridin-3-ylmethyl)-amino]-methyl}-benzenesulfonyl)-1H-pyrrol-3-yl]-acrylamide] the figure was 70 to 5000 nM; with `O=C(/C=C/c1ccn(S(=O)(=O)c2ccc(CNCc3c[nH]c4ccccc34)cc2)c1)NO` [Compound 12, (E)-N-Hydroxy-3-[1-(4-{[(1H-indol-3-ylmethyl)-amino]-methyl}-benzenesulfonyl)-1H-pyrrol-3-yl]-acrylamide], 70 to 5000 nM.
The same measure, in the same setting: with `O=C(/C=C/c1ccn(S(=O)(=O)c2ccc(CNCc3ccccc3)cc2)c1)NO` [Compound 13, (E)-3-{1-[4-(Benzylamino-methyl)-benzenesulfonyl]-1H-pyrrol-3-yl}-N-hydroxy-acrylamide] the figure was 70 to 5000 nM.
Same read-out and setting: the value for `CC(C)CNCc1ccc(S(=O)(=O)n2ccc(/C=C/C(=O)NO)c2)cc1` [Compound 14, (E)-N-Hydroxy-3-{1-[4-(isobutylamino-methyl)-benzenesulfonyl]-1H-pyrrol-3-yl}-acrylamide] was 70 to 5000 nM.
Compound `O=C(/C=C/c1ccn(S(=O)(=O)c2ccc(CNCc3ccc4[nH]ccc4c3)cc2)c1)NO` [Compound 15, (E)-N-Hydroxy-3-[1-(4-{[(1H-indol-5-ylmethyl)-amino]-methyl}-benzenesulfonyl)-1H-pyrrol-3-yl]-acrylamide] had an IC50 in data set [2] of 70 to 5000 nM.
The same measure, in the same setting: the value for `O=C(/C=C/c1ccn(S(=O)(=O)c2ccc(CNCc3ccncc3)cc2)c1)NO` [Compound 16, (E)-N-Hydroxy-3-[1-(4-{[(pyridin-4-ylmethyl)-amino]-methyl}-benzenesulfonyl)-1H-pyrrol-3-yl]-acrylamide] was 70 to 5000 nM.
As for `NCc1ccc(S(=O)(=O)n2ccc(/C=C/C(=O)NO)c2)cc1` [Compound 17, (E)-3-[1-(4-Aminomethyl-benzenesulfonyl)-1H-pyrrol-3-yl]-N-hydroxy-acrylamide], the melting point fell in the range of 227 to 228.6 °C. For the same compound, in data set [2], the half-inhibitory concentration (IC50) lay within 70 to 5000 nM.
For `O=C(/C=C/c1ccn(S(=O)(=O)c2ccc(-c3ccncc3)cc2)c1)NO` [Compound 18, (E)-N-Hydroxy-3-[1-(4-pyridin-4-yl-benzenesulfonyl)-1H-pyrrol-3-yl]-acrylamide] the same measures were 219.3 to 221.4 °C and 70 to 5000 nM.
`O=C(/C=C/c1ccn(S(=O)(=O)c2ccc(-c3cn[nH]c3)cc2)c1)NO` [Compound 19, (E)-N-Hydroxy-3-[1-[4-(1H-pyrazol-4-yl)-benzenesulfonyl]-1H-pyrrol-3-yl]acrylamide] gave an IC50 in data set [2] of 70 to 5000 nM.
Take `Nc1ccccc1NC(=O)/C=C/c1ccn(S(=O)(=O)c2ccc(-c3ccncc3)cc2)c1` [Compound 20, (E)-N-(2-Amino-phenyl)-3-[1-(4-pyridin-4-yl-benzenesulfonyl)-1H-pyrrol-3-yl]-acrylamide]: the melting point fell in the range of 244.2 to 246.5 °C. For the same compound, the half-maximal inhibitory concentration (IC50) in data set [2] lay within 70 to 5000 nM.
For `Nc1ccccc1NC(=O)/C=C/c1ccn(S(=O)(=O)c2ccc(-c3cccnc3)cc2)c1` [Compound 21, (E)-N-(2-Amino-phenyl)-3-[1-(4-pyridin-3-yl-benzenesulfonyl)-1H-pyrrol-3-yl]-acrylamide] the same measures were 199.7 to 202.3 °C and 70 to 5000 nM.
Taken in the same sequence, the figures for `Nc1ccccc1NC(=O)/C=C/c1ccn(S(=O)(=O)c2ccc(-c3cn[nH]c3)cc2)c1` [Compound 22, (E)-N-(2-Amino-phenyl)-3-{1-[4-(1H-pyrazol-4-yl)-benzenesulfonyl]-1H-pyrrol-3-yl}-acrylamide] were 232.3 to 240.9 °C and 70 to 5000 nM.
Taken in the same sequence, the figures for `O=C(/C=C/c1ccn(S(=O)(=O)c2cccc(-c3ccccc3)c2)c1)NO` [Compound 23, (E)-3-[1-(Biphenyl-3-sulfonyl)-1H-pyrrol-3-yl]-N-hydroxy-acrylamide] were 114 to 159.4 °C and 70 to 5000 nM.
`O=C(/C=C/c1ccn(S(=O)(=O)c2ccc(-n3cccn3)cc2)c1)NO` [Compound 25, (E)-N-Hydroxy-3-[1-(4-pyrazol-1-yl-benzenesulfonyl)-1H-pyrrol-3-yl]-acrylamide] returned a melting point of 160.7 to 166.6 °C. For the same compound, the IC50 in data set [2] fell in the range of 70 to 5000 nM.
Taken in the same sequence, the figures for `Nc1ccccc1NC(=O)/C=C/c1ccn(S(=O)(=O)c2ccc(-c3ccccn3)s2)c1` [Compound 26, (E)-N-(2-Amino-phenyl)-3-[1-(5-pyridin-2-yl-thiophene-2-sulfonyl)-1H-pyrrol-3-yl]-acrylamide] were 171.3 to 174.7 °C and 70 to 5000 nM.
For `O=C(/C=C/c1ccn(S(=O)(=O)c2ccc(CN3CCOCC3)cc2)c1)NO` [Compound 27, (E)-N-Hydroxy-3-[1-(4-morpholin-4-ylmethyl-benzenesulfonyl)-1H-pyrrol-3-yl]-acrylamide] the same measures were 168 to 170 °C and 70 to 5000 nM.
The compound `O=C(/C=C/c1ccn(S(=O)(=O)c2ccc(CN(CCO)CCc3cc4ccccc4[nH]3)cc2)c1)NO` [Compound 28, (E)-N-Hydroxy-3-{1-[4-({(2-hydroxy-ethyl)-[2-(1H-indol-2-yl)-ethyl]-amino}-methyl)-benzenesulfonyl]-1H-pyrrol-3-yl}-acrylamide] had an IC50 in data set [2] of 70 to 5000 nM.
